Assay [1] concerns the target T1, Recombinant human M3 receptor (Homo sapiens, UniProt P20309).
T1 construct: expressed in transfected cells; host or cells: CHO-K1 cells (membranes)
As to the kind of experiment: biochemical. It counts as binding.

For assay [2], the system named is Isolated Guinea Pig Trachea. The assay is described as follows: Potency in isolated guinea pig trachea, inhibition of EFS-stimulated contraction. The note with it: Cavia porcellus, electrical field stimulation. On the procedure:
Experiments were carried out at 37° C. in modified Krebs-Henseleit solution, (114 mM NaCl, 15 mM NaHCO3, 1 mM MgSO4, 1.3 mM CaCl2, 4.7 mM KCl, 11.5 mM glucose and 1.2 mM KH2PO4, pH 7.4) gassed with 95% O2/5% CO2. Indomethacin was added to a final concentration of 3 μM
Tracheae were removed from adult male Dunkin Hartley Guinea pigs and dissected free of adherent tissue before being cut open longitudinally in a line opposite the muscle. Individual strips of 2-3 cartilage rings in width were cut and suspended using cotton thread in 10 mL water-jacketed organ baths and attached to a force transducer ensuring that the tissue is located between two platinum electrodes. Responses were recorded via a MP100W/Acknowledge data acquisition system connected to a PC. Tissues were equilibrated for one hour under a resting tone of 1 g and were then subjected to electrical field stimulation at a frequency of 80 Hz with a pulse width of 0.1 ms, a unipolar pulse, triggered every 2 minutes. A “voltage-response” curve was generated for each tissue and a submaximal voltage then applied to every piece of tissue according to its own response to voltage. Tissues were washed with Krebs solution and allowed to stabilize under stimulation prior to addition of test compound. Concentration response curves were obtained by a cumulative addition of test compound in half-log increments. Once the response to each addition had reached a plateau the next addition was made. Percentage inhibition of EFS-stimulated contraction is calculated for each concentration of each compound added and dose response curves constructed using Graphpad Prism software and the IC50 calculated for each compound.

Setting [3] is: M3, SPA format assay, read-out: Ki in the SPA format assay.
The mark [4] stands for this setting: SPA format, read-out: M3 Ki (SPA format).

Structures can show the parent of a compound that is named as a salt. Where two headings read alike, the source gives them in different places.

The source of these data is patent US20100056565A1, “Heterocyclic Derivatives as M3 Muscarinic Receptors” (priority 2007, published 2010).

T1 sequence (P20309 whole entry): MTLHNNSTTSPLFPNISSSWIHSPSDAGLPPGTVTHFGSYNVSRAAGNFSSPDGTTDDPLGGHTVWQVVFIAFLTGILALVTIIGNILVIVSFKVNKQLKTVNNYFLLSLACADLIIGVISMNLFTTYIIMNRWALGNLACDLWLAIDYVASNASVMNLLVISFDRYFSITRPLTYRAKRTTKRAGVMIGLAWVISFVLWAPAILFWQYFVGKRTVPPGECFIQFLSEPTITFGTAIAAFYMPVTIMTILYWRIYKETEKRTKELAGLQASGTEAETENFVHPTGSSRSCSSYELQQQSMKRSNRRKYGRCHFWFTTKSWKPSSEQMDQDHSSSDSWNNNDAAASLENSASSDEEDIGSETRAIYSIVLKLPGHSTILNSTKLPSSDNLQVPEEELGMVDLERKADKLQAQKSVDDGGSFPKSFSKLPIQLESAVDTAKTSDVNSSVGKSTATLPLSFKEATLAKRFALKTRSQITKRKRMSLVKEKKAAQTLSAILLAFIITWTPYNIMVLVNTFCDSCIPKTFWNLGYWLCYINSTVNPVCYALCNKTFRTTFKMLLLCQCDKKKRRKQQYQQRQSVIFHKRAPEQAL

For `OC(c1ccccc1)(c1cc(C[N+]23CCC(CC2)[C@@H](Sc2ccccc2)C3)on1)C1CCCCC1` (single isomer, unassigned) [Example 70, 1-[3-(Cyclohexyl-hydroxy-phenyl-methyl)-isoxazol-5-ylmethyl]-3-phenylsulfanyl-1-azonia-bicyclo[2.2.2]octane; chloride], the Ki (as a rule, a measure of affinity in units of concentration, obtained from inhibition or displacement) in assay [1] (setting [3]) is 0.65 nM; in assay [1] (setting [4]), under 5 nM. For the same compound, the IC50 (usually the concentration that inhibits the measured activity by half) in assay [2] turned out to be 2.8 nM.
`O[C@](c1ccccc1)(c1ncc(C[N+]23CCC(CC2)[C@@H](COc2ccccc2)C3)o1)C1CCCCC1` [Example 25, (R)-1-[2-((R)—Cyclohexyl-hydroxy-phenyl-methyl)-oxazol-5-ylmethyl]-3-phenoxymethyl-1-azonia-bicyclo[2.2.2]octane; bromide]: the Ki was 0.13 nM in assay [1] (setting [3]) and under 5 nM in assay [1] (setting [4]). The IC50 in assay [2] is 1.9 nM.
For `O[C@](c1ccccc1)(c1ncc(C[N+]23CCC(CC2)[C@@H](OCc2ccccc2)C3)o1)C1CCCC1` [Example 42, (R)-3-benzyloxy-1-[2-((R)-cyclopentyl-hydroxy-phenyl-methyl)-oxazol-5-ylmethyl]-1-azonia-bicyclo[2.2.2]octane; formate], the Ki in assay [1] (setting [3]) is 0.09 nM; in assay [1] (setting [4]) it was under 5 nM. The compound further registered an IC50 in assay [2] of 0.7 nM.
In the case of `OC(c1ccccc1)(c1ccccc1)c1noc(C[N+]23CCC(CC2)[C@@H](Oc2ccc(F)cc2)C3)n1` [Example 95, (R)-3-(4-Fluoro-phenoxy)-1-[3-(hydroxy-diphenyl-methyl)-[1,2,4]oxadiazol-5-ylmethyl]-1-azonia-bicyclo[2.2.2]octane; chloride], the Ki is 0.17 nM in assay [1] (setting [3]) and under 5 nM in assay [1] (setting [4]). This compound yielded an IC50 in assay [2] of 0.6 nM.
